Results published in patent US20090018019A1, “INCREASING PATHOGEN DEFENCE IN PLANTS” (priority 2005, published 2009).

How the values were obtained:
Assay in all cases: DNA chip expression analysis of barley leaves after soil treatment
Assay type in all cases: in vivo
Conditions in all cases: 10 mg per plant to soil
[1] = test system: HV_CEb0020C01r2_at INTEGUMENTARY MUCIN B.1
Experimental: (§1) Barley seeds (of the Baroness variety) were sown in pots containing soil about 2 cm deep (1250 g of sandy loam/per pot; the soil moisture content was adjusted to 70% of the maximum water-holding capacity) and cultivated in a climatized chamber under specified light, moisture and temperature conditions (15 h white light, 70% atmospheric humidity, 23-19° C. day/night).
(§2) 14 days after the emergence of the barley plants 10 mg of imidacloprid per plant, dissolved in 100 ml water, were applied by means of a pipette to the soil around the base of the shoot. The same volume of water without any active compound was applied to the control pots. After the soil treatment the plants were no longer watered. At various times after application (0.25; 1; 6; 8; 11; 13; 15; 16 and 17 days) the leaves were harvested, quick-frozen in liquid nitrogen and stored at −80° C. until further treatment.
(§3) The labelled RNA probes for the DNA chip hybridization were produced according to the protocols (Expression Analysis, Technical Manual) of the Affymetrix company (Affymetrix Inc., 3380 Central Expressway, Santa Clara, Calif., USA). Whole RNA was first of all isolated from in each case 500 mg of the harvested leaves. 10 μg portions of whole RNA were used for the first and second strand cDNA synthesis. The cDNA was amplified with T7 polymerase and simultaneously labelled with biotin-UTP. 20 μg portions of this biotinylated cDNA were used for the hybridization of the barley genome array (Barleyl Gene Chip, Item no: 511012) from Affymetrix. This DNA microarray contains DNA sequences of 22840 genes composed of a total of 400000 EST (Expressed Sequence Tag) sequences. Then the DNA microarrays were washed in the Affymetrix Fluidics Station, stained with streptavidin/phycoerythrin (Molecular Probes, P/N S-866) and scanned with the Affymetrix Gene Chip Scanner 3000. The fluorescence data obtained were analyzed with the Microarray Suite 5 software from Affymetrix and the Expressionist Pro software from the GeneData company. After a quality check, all of the DNA chip analyses were stored in a database. Since the Affymetrix Gene Chip System is based on measuring the absolute expression values of the genes contained in the chip, the expression values of the biological replicates of treated and non-treated plants were averaged after normalization (median calculation). With the aid of the statistical ANOVA method, those genes were identified whose expression was increased in the plants treated with imidacloprid but remained relatively constant in the untreated controls. The assembly of gene groups from specific metabolic pathways, signal transduction chains or functions was carried out by a keyword search through the gene annotations supplied by Affymetrix and by linking the genes to their corresponding Gene Ontology Annotations (Gene Ontology Consortium).

[2] = test system: Contig11773_at REGULATOR OF PAT[…]
Experimental: as §1, §2, §3

[3] = test system: Contig2209_at PATHOGENESIS RELATED PROTEIN (HV-1A)
Experimental: as §1, §2, §3

[4] = test system: Contig2210_at PATHOGENESIS-RELATED PROTEIN 1 PRECURSOR
Experimental: as §1, §2, §3

[5] = test system: Contig2990_at CHITINASE (EC 3.2.1.14)
Experimental: as §1, §2, §3

Which results are given for `O=[N+]([O-])/N=C1\NCCN1Cc1ccc(Cl)nc1` [imidacloprid]?
Induction factor = Expression (treated)/Expression (untreated) ([1]; 0.25 d): 1.4; Median of the raw expression data, treated ([1]; 0.25 days): 96.81; Induction factor = Expression (treated)/Expression (untreated) ([1]; 1 d): 0.9; Median of the raw expression data, treated ([1]; 1 day): 87.44; Induction factor = Expression (treated)/Expression (untreated) ([1]; 6 d): 4.3; Median of the raw expression data, treated ([1]; 6 days): 418.12; Induction factor = Expression (treated)/Expression (untreated) ([1]; 8 d): 2.8; Median of the raw expression data, treated ([1]; 8 days): 428.35; Induction factor = Expression (treated)/Expression (untreated) ([1]; 11 d): 2.2; Median of the raw expression data, treated ([1]; 11 days): 389.74; Induction factor = Expression (treated)/Expression (untreated) ([1]; 13 d): 1.7; Median of the raw expression data, treated ([1]; 13 days): 180.00; Induction factor = Expression (treated)/Expression (untreated) ([1]; 15 d): 1.0; Median of the raw expression data, treated ([1]; 15 days): 170.35; Induction factor = Expression (treated)/Expression (untreated) ([1]; 16 d): 1.2; Median of the raw expression data, treated ([1]; 16 days): 161.77; Induction factor = Expression (treated)/Expression (untreated) ([1]; 17 d): 0.6; Median of the raw expression data, treated ([1]; 17 days): 106.72; Induction factor = Expression (treated)/Expression (untreated) ([2]; 0.25 d): 0.9; Median of the raw expression data, treated ([2]; 0.25 days): 175.49; Induction factor = Expression (treated)/Expression (untreated) ([2]; 1 d): 0.4; Median of the raw expression data, treated ([2]; 1 day): 70.99; Induction factor = Expression (treated)/Expression (untreated) ([2]; 6 d): 7.8; Median of the raw expression data, treated ([2]; 6 days): 1513.72; Induction factor = Expression (treated)/Expression (untreated) ([2]; 8 d): 11.0; Median of the raw expression data, treated ([2]; 8 days): 2102.86; Induction factor = Expression (treated)/Expression (untreated) ([2]; 11 d): 7.4; Median of the raw expression data, treated ([2]; 11 days): 1580.30; Induction factor = Expression (treated)/Expression (untreated) ([2]; 13 d): 3.5; Median of the raw expression data, treated ([2]; 13 days): 208.99; Induction factor = Expression (treated)/Expression (untreated) ([2]; 15 d): 1.9; Median of the raw expression data, treated ([2]; 15 days): 182.27; Induction factor = Expression (treated)/Expression (untreated) ([2]; 16 d): 3.8; Median of the raw expression data, treated ([2]; 16 days): 694.71; Induction factor = Expression (treated)/Expression (untreated) ([2]; 17 d): 2.3; Median of the raw expression data, treated ([2]; 17 days): 340.39; Induction factor = Expression (treated)/Expression (untreated) ([3]; 0.25 d): 0.8; Median of the raw expression data, treated ([3]; 0.25 days): 187.60; Induction factor = Expression (treated)/Expression (untreated) ([3]; 1 d): 0.6; Median of the raw expression data, treated ([3]; 1 day): 153.35; Induction factor = Expression (treated)/Expression (untreated) ([3]; 6 d): 9.8; Median of the raw expression data, treated ([3]; 6 days): 4773.49; Induction factor = Expression (treated)/Expression (untreated) ([3]; 8 d): 11.5; Median of the raw expression data, treated ([3]; 8 days): 8173.99; Induction factor = Expression (treated)/Expression (untreated) ([3]; 11 d): 12.1; Median of the raw expression data, treated ([3]; 11 days): 8587.82; Induction factor = Expression (treated)/Expression (untreated) ([3]; 13 d): 6.0; Median of the raw expression data, treated ([3]; 13 days): 1723.94; Induction factor = Expression (treated)/Expression (untreated) ([3]; 15 d): 2.7; Median of the raw expression data, treated ([3]; 15 days): 1689.29; Induction factor = Expression (treated)/Expression (untreated) ([3]; 16 d): 2.5; Median of the raw expression data, treated ([3]; 16 days): 2069.04; Induction factor = Expression (treated)/Expression (untreated) ([3]; 17 d): 0.6; Median of the raw expression data, treated ([3]; 17 days): 888.58; Induction factor = Expression (treated)/Expression (untreated) ([4]; 0.25 d): 0.6; Median of the raw expression data, treated ([4]; 0.25 days): 143.08; Induction factor = Expression (treated)/Expression (untreated) ([4]; 1 d): 0.4; Median of the raw expression data, treated ([4]; 1 day): 78.12; Induction factor = Expression (treated)/Expression (untreated) ([4]; 6 d): 7.9; Median of the raw expression data, treated ([4]; 6 days): 6881.20; Induction factor = Expression (treated)/Expression (untreated) ([4]; 8 d): 8.8; Median of the raw expression data, treated ([4]; 8 days): 8961.17; Induction factor = Expression (treated)/Expression (untreated) ([4]; 11 d): 5.4; Median of the raw expression data, treated ([4]; 11 days): 7946.25; Induction factor = Expression (treated)/Expression (untreated) ([4]; 13 d): 3.6; Median of the raw expression data, treated ([4]; 13 days): 1553.93; Induction factor = Expression (treated)/Expression (untreated) ([4]; 15 d): 2.8; Median of the raw expression data, treated ([4]; 15 days): 1970.04; Induction factor = Expression (treated)/Expression (untreated) ([4]; 16 d): 2.4; Median of the raw expression data, treated ([4]; 16 days): 2013.49; Induction factor = Expression (treated)/Expression (untreated) ([4]; 17 d): 0.7; Median of the raw expression data, treated ([4]; 17 days): 1121.55; Induction factor = Expression (treated)/Expression (untreated) ([5]; 0.25 d): 0.9; Median of the raw expression data, treated ([5]; 0.25 days): 31.12; Induction factor = Expression (treated)/Expression (untreated) ([5]; 1 d): 0.9; Median of the raw expression data, treated ([5]; 1 day): 29.13; Induction factor = Expression (treated)/Expression (untreated) ([5]; 6 d): 8.4; Median of the raw expression data, treated ([5]; 6 days): 561.20; Induction factor = Expression (treated)/Expression (untreated) ([5]; 8 d): 19.3; Median of the raw expression data, treated ([5]; 8 days): 830.74; Induction factor = Expression (treated)/Expression (untreated) ([5]; 11 d): 13.6; Median of the raw expression data, treated ([5]; 11 days): 664.56; Induction factor = Expression (treated)/Expression (untreated) ([5]; 13 d): 3.0; Median of the raw expression data, treated ([5]; 13 days): 235.46; Induction factor = Expression (treated)/Expression (untreated) ([5]; 15 d): 1.1; Median of the raw expression data, treated ([5]; 15 days): 227.32; Induction factor = Expression (treated)/Expression (untreated) ([5]; 16 d): 2.5; Median of the raw expression data, treated ([5]; 16 days): 76.80; Induction factor = Expression (treated)/Expression (untreated) ([5]; 17 d): 0.6; Median of the raw expression data, treated ([5]; 17 days): 32.84
